Test results reported in patent US20220081412A1, “QUINOLINYL-PYRAZINE-CARBOXAMIDE COMPOUNDS AND USES THEREOF” (The Regents of the University of Michigan, priority 2018, published 2022).

System: NCI60 cell lines
Assay: NCI60 cell line panel
Type: cell-based, human
Method: The Developmental Therapeutics Program (DTP) of NCI has evaluated more than 100,000 pure compounds and more than 34,000 crude extracts against the panel of human tumor cell lines. The resultant data are analyzed using a program called COMPARE, that rank the entire database of tested compounds in the order of the similarity of the responses. […] Thus, the NCI60 databases is highly useful to the cancer research community. Further experiments were conducted that tested some of the active compounds in a panel of NCI60 cell line to relate our compounds with some known inhibitors to have an idea of possible mechanism of action.
In order to understand the selectivity of these compounds in different cancer types, some of them were tested against a panel of 60 cell lines (Table XXXIX).

CCN(CC)CCCC(C)Nc1cnc(C(=O)Nc2cc(C)cc3cccnc23)cn1 (centres unmarked) [J4, 5-((5-(diethylamino)pentan-2-yl)amino)-N-(6-methylquinolin-8-yl)pyrazine-2-carboxamide]
GIPRCNT: % Growth inhibition (Breast Cancer, BT-549): 93.26% | GIPRCNT: % Growth inhibition (Breast Cancer, HS 578T): 79.89% | GIPRCNT: % Growth inhibition (Breast Cancer, MCF7): 57.27% | GIPRCNT: % Growth inhibition (Breast Cancer, MDA-MB-231/ATCC): 89.17% | GIPRCNT: % Growth inhibition (Breast Cancer, MDA-MB-468): 9.358% | GIPRCNT: % Growth inhibition (Breast Cancer, T-47D): 32.641% | GIPRCNT: % Growth inhibition (CNS Cancer, SF-268): 66.12% | GIPRCNT: % Growth inhibition (CNS Cancer, SF-295): 98.94% | GIPRCNT: % Growth inhibition (CNS Cancer, SF-539): 86.87% | GIPRCNT: % Growth inhibition (CNS Cancer, SNB-19): 89.24% | GIPRCNT: % Growth inhibition (CNS Cancer, SNB-75): 78.26% | GIPRCNT: % Growth inhibition (CNS Cancer, U251): 78.39% | GIPRCNT: % Growth inhibition (Colon Cancer, COLO 205): 37.0068% | GIPRCNT: % Growth inhibition (Colon Cancer, HCC-2998): 89.8% | GIPRCNT: % Growth inhibition (Colon Cancer, HCT-15): 59.89% | GIPRCNT: % Growth inhibition (Colon Cancer, HCT-116): 18.05% | GIPRCNT: % Growth inhibition (Colon Cancer, HT29): 37.31% | GIPRCNT: % Growth inhibition (Colon Cancer, KM12): 97.9% | GIPRCNT: % Growth inhibition (Colon Cancer, SW-620): 75.26% | GIPRCNT: % Growth inhibition (Leukemia, CCRF-CEM): 54.24% | GIPRCNT: % Growth inhibition (Leukemia, HL-60(TB)): 76.8% | GIPRCNT: % Growth inhibition (Leukemia, K-562): 25.88% | GIPRCNT: % Growth inhibition (Leukemia, MOLT-4): 46.46% | GIPRCNT: % Growth inhibition (Leukemia, RPMI-8226): 77.97% | GIPRCNT: % Growth inhibition (Leukemia, SR): 81.88% | GIPRCNT: % Growth inhibition (Melanoma, LOX IMVI): 87% | GIPRCNT: % Growth inhibition (Melanoma, M14): 98.61% | GIPRCNT: % Growth inhibition (Melanoma, MALME-3M): 107.0521% | GIPRCNT: % Growth inhibition (Melanoma, MDA-MB-435): 83.68% | GIPRCNT: % Growth inhibition (Melanoma, SK-MEL-2): 104.3875% | GIPRCNT: % Growth inhibition (Melanoma, SK-MEL-5): 83.12% | GIPRCNT: % Growth inhibition (Melanoma, UACC-62): 98.62% | GIPRCNT: % Growth inhibition (Melanoma, UACC-257): 71.75% | GIPRCNT: % Growth inhibition (Non-Small Cell Lung Cancer, A549/ATCC): 72.8% | GIPRCNT: % Growth inhibition (Non-Small Cell Lung Cancer, EKVX): 77.77% | GIPRCNT: % Growth inhibition (Non-Small Cell Lung Cancer, HOP-62): 91.15% | GIPRCNT: % Growth inhibition (Non-Small Cell Lung Cancer, HOP-92): 51.4% | GIPRCNT: % Growth inhibition (Non-Small Cell Lung Cancer, NCI-H23): 96.3% | GIPRCNT: % Growth inhibition (Non-Small Cell Lung Cancer, NCI-H226): 60.39% | GIPRCNT: % Growth inhibition (Non-Small Cell Lung Cancer, NCI-H322M): 84.18% | GIPRCNT: % Growth inhibition (Non-Small Cell Lung Cancer, NCI-H460): 79.5% | GIPRCNT: % Growth inhibition (Non-Small Cell Lung Cancer, NCI-H522): 96.8365% | GIPRCNT: % Growth inhibition (Ovarian Cancer, IGROV1): 68.68% | GIPRCNT: % Growth inhibition (Ovarian Cancer, NCI/ADR-RES): 92.67% | GIPRCNT: % Growth inhibition (Ovarian Cancer, OVCAR-3): 20.46% | GIPRCNT: % Growth inhibition (Ovarian Cancer, OVCAR-4): 58.85% | GIPRCNT: % Growth inhibition (Ovarian Cancer, OVCAR-5): 97.58% | GIPRCNT: % Growth inhibition (Ovarian Cancer, OVCAR-8): 86.9118% | GIPRCNT: % Growth inhibition (Ovarian Cancer, SK-OV-3): 103.7568% | GIPRCNT: % Growth inhibition (Prostate Cancer, DU-145): 80.68% | GIPRCNT: % Growth inhibition (Prostate Cancer, PC-3): 83.08% | GIPRCNT: % Growth inhibition (Renal Cancer, 786-0): 88.22% | GIPRCNT: % Growth inhibition (Renal Cancer, A498): 70.33% | GIPRCNT: % Growth inhibition (Renal Cancer, ACHN): 77.87% | GIPRCNT: % Growth inhibition (Renal Cancer, CAKI-1): 93.45% | GIPRCNT: % Growth inhibition (Renal Cancer, RXF 393): 72.29% | GIPRCNT: % Growth inhibition (Renal Cancer, SN12C): 77.92% | GIPRCNT: % Growth inhibition (Renal Cancer, TK-10): 86.86% | GIPRCNT: % Growth inhibition (Renal Cancer, UO-31): 63.33%
